The target of data set [1] is T1, catalytic domain of human stromelysin (Hsln) (Homo sapiens, UniProt P08254).
T1 construct: The catalytic domain of human stromelysin (Hsln) was obtained by expression and purification of a C-terminally truncated prostromelysin-1; made in house; host or cells: E. coli BL21
As to the kind of experiment: Fluorometric MCA-peptide hydrolysis assay, stromelysin (Hsln). The class given is biochemical. The conditions noted are these: apparent Ki; 10 μM MCA peptide substrate, 37° C., pH 7.5; read-out: Hsln (Ki,app). The essentials: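 APMA-activated E. coli–expressed catalytic domain, with 10 μM MCA-Pro-Leu-Gly-Leu-DPA-Ala-Arg-NH2 at 37 °C. Buffer was pH 7.5 Tricine with NaCl, CaCl2, zinc acetate and 2% final DMSO; fluorescence read at ex 328/em 393 nm over 60 min. Ki,app from steady-state rates fitted to competitive or Morrison tight-binding equations.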

The target of data set [2] is T2, human progelatinase A (GelA), catalytic and fibronectin-like portion (Homo sapiens, UniProt P08253).
T2 construct: The catalytic and fibronectin-like portion of human progelatinase A (GelA) was expressed as a fusion protein with ubiquitin; ubiquitin; made in house; host or cells: E. coli
Description: Fluorometric MCA-peptide hydrolysis assay, gelatinase A (GelA). The class given is biochemical. The conditions noted are these: apparent Ki; 10 μM MCA peptide substrate, 37° C., pH 7.5. In a few lines: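 E. coli-expressed ubiquitin fusion of human proGelA catalytic plus fibronectin-like domains, autoactivated; 10 μM MCA-Pro-Leu-Gly-Leu-DPA-Ala-Arg-NH2, pH 7.5 Tricine/NaCl/CaCl2/Zn buffer, 2% DMSO, 37° C, 60 min. Fluorescence 328/393 nm; steady-state rates fitted to competitive inhibition or Morrison tight-binding equation giving Ki,app (≈Ki since [S]<<Km).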

Data set [3] addresses T3, Human matrilysin (Matr) (Homo sapiens, UniProt P09237).
T3 construct: the catalytic domain was liberated by treatment with 2 mM APMA at 37° C. for 2 hours; ubiquitin (cleaved yes); made in house; host or cells: E. coli
T3 sequence (P09237 95-267): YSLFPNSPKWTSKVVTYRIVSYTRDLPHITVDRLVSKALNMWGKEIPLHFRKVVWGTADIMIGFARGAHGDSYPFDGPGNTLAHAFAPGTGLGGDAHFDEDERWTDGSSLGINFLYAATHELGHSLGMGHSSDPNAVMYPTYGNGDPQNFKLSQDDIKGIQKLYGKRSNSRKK
Description: Fluorometric MCA-peptide hydrolysis assay, matrilysin (Matr). The class given is biochemical. The settings on record: apparent Ki; 10 μM MCA peptide substrate, 37° C., pH 7.5; read-out: Matr (Ki,app). The essentials: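 Catalytic domain of E. coli-expressed human matrilysin assayed at 37° C, pH 7.5 Tricine buffer, 2% DMSO, with 10 μM MCA-Pro-Leu-Gly-Leu-DPA-Ala-Arg-NH2; fluorescence ex 328/em 393 nm over 60 min. Ki,app from steady-state rates fitted to competitive inhibition or Morrison tight-binding equation.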

Data set [4] can be described thus: LogP. The class given is physicochemical.
Data set [5] concerns the target T4, human collagenase-3 (Coll3) (Homo sapiens, UniProt P45452).
T4 construct: the catalytic domain was liberated by treatment with 2 mM APMA at room temperature overnight; ubiquitin (N, cleaved yes); made in house; host or cells: E. coli
As to the kind of experiment: Fluorometric MCA-peptide hydrolysis assay, collagenase-3 (Coll3). The class given is biochemical. The conditions noted are these: apparent Ki; 10 μM MCA peptide substrate, 37° C., pH 7.5; read-out: Coll3 (Ki,app).

A short description of data set [6]: Determination of inhibitor concentration in plasma after oral dosing. The conditions noted are these: Sprague-Dawley, rat plasma, dose 50 mg/kg, vehicle A (molar equivalent of HCl in water). Type of data set: in vivo, Sprague Dawley rats. How it is done: The dosing solution consisted of the inhibitor dissolved in either a molar equivalent of HCl in water (vehicle A), in 60% aq. propylene glycol (vehicle B), or in 2.8 mg/mL sodium bicarbonate in 60% aqueous propylene glycol (vehicle C), yielding a final concentration that ranged from 10-15 mg/ml. Sprague Dawley rats (Hilltop Lab Animals, Scottsdale, Pa.) were dosed as a function of drug weight per body weight, usually 50 mgper kg. Blood was taken from the rats and centrifuged, and the plasma was stored in the freezer. Drug was extracted from a 50 μl plasma aliquot by adding 1 ml of acetonitrile, shaking for 2 minutes, centrifuging for 15 minutes at 4000 rpm, collecting the supernatant, and then evaporating it to dryness under a stream of nitrogen. The samples were reconstituted with 130 μl of mobile phase, shook for 2 minutes, and centrifuged for 15 minutes at 4000 rpm. The supernatant was collected and the samples were analyzed by injecting 100 μl of supernatant onto HPLC.
Quantitation of drug levels was accomplished by generating a standard curve of known drug amounts that were extracted from added plasma. Drug levels were plotted as a function of time and analyzed to provide area under the curve (AUC) and maximum concentration (Cmax) values.

Data set [7] concerns the target T5, fibroblast collagenase-1 catalytic domain (HFC) (Homo sapiens, UniProt P03956).
T5 construct: The catalytic domain of human collagenase-1 was expressed as a fusion protein with ubiquitin in E. coli; ubiquitin (cleaved yes); made in house; host or cells: E. coli
T5 sequence (P03956 100-269 limits assumed): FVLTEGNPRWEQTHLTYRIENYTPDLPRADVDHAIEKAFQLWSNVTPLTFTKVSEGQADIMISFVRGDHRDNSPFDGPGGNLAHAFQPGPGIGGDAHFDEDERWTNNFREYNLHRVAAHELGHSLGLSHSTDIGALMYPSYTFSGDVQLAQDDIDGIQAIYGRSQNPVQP
Description: Fluorometric MCA-peptide hydrolysis assay, fibroblast collagenase-1 (HFC). Type of data set: biochemical. The conditions noted are these: apparent Ki; 10 μM MCA peptide substrate, 37° C., pH 7.5; read-out: HFC (Ki,app). In a few lines:
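Human collagenase-1 catalytic domain, expressed in E. coli as ubiquitin fusion, was assayed with 10 μM MCA-Pro-Leu-Gly-Leu-DPA-Ala-Arg-NH2 at 37 °C in Tricine pH 7.5, 2% DMSO, over 60 min (ex 328/em 393 nm). Ki,app came from steady-state rates fitted to competitive or Morrison tight-binding equations.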

T2 sequence (P08253 110-465 limits assumed): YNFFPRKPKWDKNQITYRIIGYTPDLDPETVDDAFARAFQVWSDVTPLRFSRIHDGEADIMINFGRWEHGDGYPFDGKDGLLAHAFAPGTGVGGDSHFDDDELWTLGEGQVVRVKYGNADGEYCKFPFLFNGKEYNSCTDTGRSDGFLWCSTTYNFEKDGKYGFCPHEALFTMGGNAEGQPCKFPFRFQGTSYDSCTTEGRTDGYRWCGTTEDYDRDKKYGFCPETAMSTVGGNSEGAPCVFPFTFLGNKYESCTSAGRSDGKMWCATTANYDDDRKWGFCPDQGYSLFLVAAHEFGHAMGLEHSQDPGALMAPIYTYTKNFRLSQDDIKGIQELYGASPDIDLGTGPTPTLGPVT
T1 sequence (P08254 100-272 limits assumed): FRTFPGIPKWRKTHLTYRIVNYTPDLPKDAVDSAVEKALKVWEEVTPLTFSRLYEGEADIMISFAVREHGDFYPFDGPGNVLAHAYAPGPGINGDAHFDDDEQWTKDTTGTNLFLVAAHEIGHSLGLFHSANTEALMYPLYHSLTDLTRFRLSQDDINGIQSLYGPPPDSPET

Usually logP stands for the decadic logarithm of the partition coefficient of the neutral form, usually between octanol and water. Consider `CNC(=O)[C@@H](NC(=O)[C@@H](CC(=O)O)n1ccc(-c2ccc(-c3ccccc3)cc2)c1)C(C)(C)C` [Example 1(e), 3(R)-[3-(Biphenyl-4-yl)-1H-pyrrol-1-yl]-N-[2,2-dimethyl-1(S)-(methylcarbamoyl)propyl]succinamic Acid], for which the results for the Ki in data set [1], in data set [3] and in data set [5] were 3.1 nM, 500 nM and 0.9 nM, respectively. In addition, the GelA (Ki,app) in data set [2] worked out at 0.108 nM. The compound further returned a logP in data set [4] of 1.19.
The melting point is the temperature, or range, at which the solid turns liquid. The AUC is the area under the concentration-time curve, a measure of exposure. One may read the Cmax as the maximum level reached in the sampled fluid or tissue. In turn, `CC(C)(C)[C@@H](CO)NC(=O)[C@@H](CC(=O)O)n1ccc(-c2ccc(-c3ccncc3)cc2)c1` [Example 5(a), N-[2,2-Dimethyl-1(S)-(hydroxymethyl)propyl]-3(R)-[3-[4-(pyridin-4-yl)phenyl]-1H-pyrrol-1-yl]succinamic Acid] registered a melting point of 192 to 194 °C. Further, the Ki in data set [1] is 84 nM. Besides, the GelA (Ki,app) in data set [2] was determined as 1.6 nM. Moreover, in data set [6], the AUC was 3520 ng·h/mL and the Cmax turned out to be 1600 ng/mL. This compound gave a logP in data set [4] of 0.11. In data set [5], the Ki came out at 1.8 nM.
`CNC(=O)[C@@H](NC(=O)[C@@H](CC(=O)O)n1ccc(-c2ccc(-c3ccc(C(N)=O)cc3)cc2)c1)C(C)(C)C` [Example 5(e), 3(R)-[3-(4′-Carbamoylbiphenyl-4-yl)-1H-pyrrol-1-yl]-N-(2,2-dimethyl-1(S)-(methylcarbamoyl)propyl)succinamic Acid]: the Ki in data set [1] was 1.7 nM; in data set [3], 182 nM; in data set [7], 530 nM; in data set [5] it was 0.076 nM. The GelA (Ki,app) in data set [2] amounted to 0.109 nM. The logP in data set [4] amounted to 1.71.
With `CC(C)(C)[C@H](NC(=O)[C@@H](CC(=O)O)n1ccc(-c2ccc(-c3ccc(C(N)=O)cc3)cc2)c1)C(=O)Nc1ccncc1` [Example 5(f), 3(R)-[3-(4′-Carbamoylbiphenyl-4-yl)-1H-pyrrol-1-yl]-N-[2,2-dimethyl-1(S)-(N-(pyridin-4-yl)carbamoyl)propyl]succinamic Acid], the melting point fell in the range of 194 to 196 °C. In addition, in data set [1], the Ki is 0.46 nM. Also, the GelA (Ki,app) in data set [2] is 0.023 nM. Also, the Ki in data set [3] is 2.1 nM. Also, the Ki in data set [7] came out at 818 nM. In data set [4], the logP came to 2.56. Moreover, in data set [5], the Ki worked out at 0.012 nM.

The record behind these values is patent US6495699B2, “Metalloproteinase inhibitors, pharmaceutical compositions containing them, and their use” (Agouron Pharmaceuticals Inc., priority 1996, dated 2002).
